Data set [1] has as its system keratinocytes from the A431 line. The data set is described as follows: Antiinflammatory activity: release of E2 prostaglandins by UVB-irradiated keratinocytes (ELISA). In kind it is cell-based. How it is done: Study of the antiinflammatory activity of the hydroxytyrosol dihydrosinapate of the invention of formula (IIa), by measurement of the inhibition of release of E2 prostaglandins by keratinocytes under the effect of UVB.
The keratinocytes from the A431 line are cultured in an appropriate medium at 37° C. for 72 hours under 5% CO2. The culture medium is then withdrawn and replaced with the medium containing the products under test, and also the positive and negative controls. The cells are subsequently irradiated with UV B at 30 mJ/cm2. The cells are incubated for an extra 24 hours at 37° C. under 5% CO2. The cell supernatants are subsequently recovered, and the E2 prostaglandins (PGE2) released are quantified by an ELISA assay.
An amount of 100 μL of each sample, control or PGE2 standard is transferred to the wells of a 96-well plate, which are coated with antibodies directed against rat immunoglobulin G (IgG). Then an amount of 25 μL of PGE2-peroxidase conjugate is added to each well, followed by an amount of 25 μL of anti-PGE2 monoclonal antibody. The plate is incubated at 4° C. overnight. The wells are then rinsed and an amount of 100 μL of peroxidase substrate is added. After 15 minutes of incubation at ambient temperature, the optical density is read off at 450 nm. The amount of prostaglandin E2 released after irradiation is deduced from a commercial PGE2 standard range from 0 to 400 pg/mL of PGE2.
The negative control, represented by the cells which were not treated with samples and which underwent irradiation by UV B, gave rise to 100% release of PGE2. The positive experimental control is aspirin, which at 0.03% gave rise to 5%+/−2% release of PGE2.
Background: In an ELISA, binding on a coated surface is turned into a signal by an enzyme label.

The target in data set [2] is T1, human tyrosinase (Homo sapiens, UniProt P14679).
T1 construct: endogenous in cells; host or cells: normal human melanocytes obtained from abdominal plasty
T1 sequence (P14679 19-529): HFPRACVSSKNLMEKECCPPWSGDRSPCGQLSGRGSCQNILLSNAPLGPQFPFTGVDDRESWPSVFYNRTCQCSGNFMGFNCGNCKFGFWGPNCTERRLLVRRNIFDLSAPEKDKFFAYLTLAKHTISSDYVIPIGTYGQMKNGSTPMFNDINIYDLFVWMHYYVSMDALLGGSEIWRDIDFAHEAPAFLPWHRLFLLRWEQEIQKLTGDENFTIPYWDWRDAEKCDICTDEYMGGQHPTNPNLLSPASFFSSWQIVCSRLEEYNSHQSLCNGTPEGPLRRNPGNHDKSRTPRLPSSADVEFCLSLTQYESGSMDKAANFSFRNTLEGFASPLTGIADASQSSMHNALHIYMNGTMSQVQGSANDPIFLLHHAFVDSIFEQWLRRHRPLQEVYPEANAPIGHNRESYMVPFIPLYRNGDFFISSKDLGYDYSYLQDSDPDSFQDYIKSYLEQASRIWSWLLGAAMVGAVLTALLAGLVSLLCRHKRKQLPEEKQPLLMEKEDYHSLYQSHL
As to the kind of experiment: Anti-human tyrosinase activity in normal human melanocytes (MBTH/L-Dopa, OD490). Format: cell-based. The note with it: normal human melanocytes, read-out: % inhibition of activity of tyrosinase +/− standard deviation. How it is done:
Study of the inhibition of tyrosinase by the hydroxytyrosol dihydrosinapate of the invention of formula (IIa), in comparison with the prior-art ferulic acid derivative, by quantitative analysis of the human tyrosinase activity of melanocytes cultured as a monolayer following application of the compound under test. Normal human melanocytes (obtained from abdominal plasty) are seeded in a 24-well plate at 80000 cells per well. They are cultured until confluence, and the compounds under test are applied in the culture media for 24 hours. After 24 hours, the media are removed and the melanocytes are detached by mechanical action. Extraction is carried out by thermal shock and then the supernatants are recovered and incubated with MBTH (methyl benzothiazolinone-hydrazone) (Sigma) and L-Dopa (Sigma). The optical density (OD) at 490 nm (OD490) is measured after 30 minutes of incubation, and the inhibition of tyrosinase is calculated according to the following formula: % inhibition=100−[100×(OD490 sample/level of proteins in sample)/(OD490 negative control/level of proteins in negative control)] The OD490 is therefore related to the level of protein, which is the measurement in each culture well. […] The results are presented as % inhibition of activity of tyrosinase, in Table 2.

Data set [3] is described as follows: TBARS test, lipid peroxidation of UVB-irradiated liposomal suspension. The note with it: for % inhibition of lipid peroxidation: UVB 2 hours. How it is done:
Study of the radical scavenger activity of the hydroxytyrosol dihydrosinapate of the invention of formula (IIa) and of the prior-art ferulic acid derivative by the TBARS test.
Two identical 96-well plates are produced according to a defined plate plan. 50 μL of a sample mixture prepared by diluting a solution of a test compound or of a negative control (vehicle medium without test compound) or of a positive control (D-L-alpha-tocopherol) to 1/10 in a liposomal suspension are distributed per well, in quadruplicate. One of the two plates is irradiated with UVB for 2 hours. The other plate, serving as a control, is incubated in the absence of light and at ambient temperature for 2 hours.
At the end of irradiation, an amount of 100 μL of 20% trichloroacetic acid solution was added per well, followed by an amount of 34 μL of 1% thiobarbituric acid solution. The plates are then incubated at 105° C. for 25 minutes.
The contents of each well are centrifuged at 5700 rpm for 5 minutes, and then an amount of 100 μL of supernatant was deposited in new plates, according to the same plan, and the absorbance was read off at 530 nm.
The positive experimental control was D-L-alpha-tocopherol, at a concentration of 1%, for which a percentage inhibition of 80% was obtained.

The subject of data set [4] is melanocytes of murine line B16. As to the kind of experiment: Inhibition of melanin production in B16 melanocytes stimulated with an α-MSH derivative. Particulars: Mus musculus, B16 cells. In kind it is cell-based. The protocol:
Determination of the percentage inhibition of melanin production by the hydroxytyrosol dihydrosinapate of the invention of formula (IIa) or the ferulic acid derivative of the prior art, by quantitative analysis of the total melanin synthesized by melanocytes of murine line B16 following application of the compound under test.
Melanocytes (B16 cells) are cultured for 24 hours in a 96-well plate in an appropriate medium. […] After 72 hours of incubation, the culture medium is withdrawn, and total melanin is quantified by measuring the absorbance at 405 nm against a standard range of synthetic melanin from 0.78 to 100 μg/mL.
The results are expressed as percentage inhibition of melanin production relative to the negative control, and are presented in Table 1.
The inhibitory activity on melanin production of the product tested is calculated as a percentage according to the following formula:
% inhibition=[(mean stimulated control−mean basal control)−(sample value−mean basal control)]/(mean stimulated control−mean basal control)×100
where: • Mean stimulated control: mean of the values obtained with a medium supplemented with an alpha-MSH derivative • Sample value: value obtained with the compound under test • Mean basal control: Mean of the values obtained with a medium not supplemented with an alpha-MSH derivative

A short description of data set [5]: DPPH radical scavenger test (acellular). Particulars: 30 minutes. An excerpt: Study of the radical scavenger activity of the hydroxytyrosol dihydrosinapate of the invention of formula (IIa) and of the prior-art ferulic acid derivative in an acellular in vitro model, using DPPH.
1,1-Diphenyl-2-picrylhydrazyl, owing to its paramagnetic structure, is able to accept an electron or a hydrogen radical in order to become a stable diamagnetic molecule.
The addition of a compound which provides electrons gives rise to decoloring of the 1,1-diphenyl-2-picrylhydrazyl in a manner proportional to the number of electrons accepted by the radical, and this decoloration can be monitored by measuring the absorbance at 530 nm (OD530).
[…] At the end of the incubation, the radical scavenger activity of the compound under test is evaluated by measuring the absorbance of the solution at 530 nm.
The results are presented as % inhibition of the DPPH radical, in Table 3a).
The radical scavenger activity of the test product is calculated as a percentage, according to the following formula:
100−((OD530 in the presence of the compound under test/OD530 in the absence of compound)×100)
In general terms: DPPH is a stable violet radical that fades when it is reduced.

Data set [6] has as its system melanocytes. The data set is described as follows: Cytotoxicity, MTT cell viability on melanocytes. Format: cell-based. Particulars: 0.25%, positive cytotoxicity control. How it is done:
(§1) Study of cell viability following application of the hydroxytyrosol dihydrosinapate of the invention of formula (IIa) to keratinocytes or melanocytes.
(§2) The cells (keratinocytes or melanocytes) were cultured in a 96-well plate at 37° C. under 5% CO2 in an appropriate medium until confluence. The medium was withdrawn and then an amount of 200 μL of a 0.5 mg/mL MTT solution was added. The plates were then incubated at 37° C. for 3 hours, after which the MTT solution was withdrawn from each well and replaced with DMSO. The plates were agitated for 15 minutes, and the optical density was measured at 550 nm.
(§3) The negative cytotoxicity control is PBS. The positive cytotoxicity control is 0.25% SDS. 0.1% DMSO was used as control.

For data set [7], the system named is keratinocytes. As to the kind of experiment: Cytotoxicity, MTT cell viability on keratinocytes. Format: cell-based. The note with it: 0.25%, positive cytotoxicity control. The protocol:
as §1, §2, §3

As to `COc1cc(CCC(=O)OCCc2ccc(O)c(O)c2)cc(OC)c1O`, in data set [1] (keratinocytes, 30 μM, after irradiation with UVB), the “inhibition of prostaglandin E2 release (in words)” value is “greatly inhibited prostaglandin E2 release”.
On to `OC[C@H]1O[C@@H](Oc2ccc(O)cc2)[C@H](O)[C@@H](O)[C@@H]1O` [Arbutin, arbutin, reference compound], for which the inhibition at 1000 µM in data set [2] (1 mM) was found to be 65%.
Regarding `Cc1c(C)c2c(c(C)c1O)CCC(C)(CCCC(C)CCCC(C)CCCC(C)C)O2` [D-L-alpha-tocopherol], the “percentage inhibition (lipid peroxidation)” value in data set [3] (positive control at a concentration of 1%) amounted to 80%.
`O=c1cc(CO)occ1O` [Kojic acid, kojic acid]: the inhibition at 25 µg/mL in data set [4] (positive control at 0.025 mg/mL, read-out: percentage inhibition of melanin production) stood at 50%.
For the compound `COc1cc(/C=C/C(=O)NCCc2ccc(O)c(O)c2)ccc1O` [Prior-art ferulic acid derivative, N-trans-feruloyldopamine, reference compound], the “% inhibition of the DPPH radical” value is listed as 6.02 +/− 0.758% in data set [5] (1 μM); 35.02 +/− 1.209% in data set [5] (5 μM); 61.85 +/− 1.35% in data set [5] (10 μM); 89.91 +/− 0.66% in data set [5] (30 μM); 89.91 +/− 0.59% in data set [5] (50 μM); 89.91 +/− 0.66% in data set [5] (100 μM). Also, the “% inhibition of the DPPH radical” value in data set [5] (1000 μM) is recorded as 90.99 +/− 0.46%. Besides, the “% inhibition of lipid peroxidation” value in data set [3] (1 μM after dilution to 1/10th in the liposomal suspension) is listed as −16.95%; in data set [3] (5 μM after dilution to 1/10th in the liposomal suspension), 6.69%; in data set [3] (30 μM after dilution to 1/10th in the liposomal suspension), 11.77%; in data set [3] (50 μM after dilution to 1/10th in the liposomal suspension), 31.74%; in data set [3] (100 μM after dilution to 1/10th in the liposomal suspension), 64.04%; in data set [3] (1000 μM after dilution to 1/10th in the liposomal suspension) it was 94.72%. Besides, the inhibition at 10 µM was determined as 37% in data set [4] (10 μM, 72 hours, read-out: % inhibition of melanin +/− standard deviation) and 18.8% in data set [2] (10 μM, 24 hours). In addition, the inhibition at 30 µM in data set [4] (30 μM, 72 hours, read-out: % inhibition of melanin +/− standard deviation) came to 76%. For the same compound, in data set [4] (50 μM, 72 hours, read-out: % inhibition of melanin +/− standard deviation), the inhibition at 50 µM stood at 88%. The inhibition at 1 µM in data set [2] (1 μM, 24 hours) was -9.22%. For the same compound, in data set [2] (100 μM, 24 hours), the inhibition at 100 µM stood at 67.8%.
With `CCCCCCCCCCCCOS(=O)(=O)[O-].[Na+]` [SDS, reference compound], the “Percentage cell viability, Mean” value turned out to be 0.8% in data set [6] and 1.3% in data set [7].
With `CC(=O)Oc1ccccc1C(=O)O` [aspirin, reference compound], the “% release of PGE2 after irradiation” value in data set [1] (A431 keratinocytes, 0.03%, UV B 30 mJ/cm2, positive control) came out at 5%+/−2%.
